In patent publication US20150010928A1, “MEANS AND METHODS FOR ASSESSING AN ENDOCRINE DISEASE OR DISORDER” (priority 2012, published 2015):
Marks after values point to notes of the source that are not given here.

System: male rats
Assay: Plasma metabolite profiling (GC-MS, LC-MS, SPE-LC-MS) in male rats dosed once daily over 28 days (OECD 407)
Type: in vivo, rat
Parameters: key to erythro-Sphingoside (d18:1) / Tricosanoic acid (C23:0) / beta-Sitosterol / Tryptophan: ratio of treated group mean to untreated control group mean
Summary of the method: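 Metabolites were measured by GC-MS (derivatised) and reversed-phase LC-MS, with steroids by online SPE-LC-MS, in plasma drawn from fasted rats on days 7, 14 and 28 of once-daily dosing (5/sex/group). Values are ratios versus sex-matched untreated controls, normalized to pool samples, with Welch-test p-values.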

[1] = male rats, plasma, high dose, day 7
[2] = male rats, plasma, high dose, day 14
[3] = male rats, plasma, high dose, day 28
[4] = m7, male rats, high dose, Table 16

## Cn1cc[nH]c1=S [Methimazole]
m7, high dose, Table 10a
  3-O-Methylsphingosine (d18:1): 3.59 *
  5-O-Methylsphingosine (d18:1): 3.41 *
  Cysteine: 0.74^
  Lignoceric acid (C24:0): 2.12 *
  Nervonic acid (C24:cis[15]1): 2.59 *
  Oleic acid (C18:cis[9]1): 0.95^
  Stearic acid (C18:0): 1.34 *
  alpha-Tocopherol: 1.76 *
  erythro-Sphingoside (d18:1): 2.91 *
  threo-Sphingosine (d18:1): 2.91 *
m7, high dose, Table 10b
  Oleic acid (C18:cis[9]1): 0.95^
  Thyroxine (T4): 0.11 *
  trans-4-Hydroxyproline: 0.85 *
m14, high dose, Table 10a
  3-O-Methylsphingosine (d18:1): 3.98 *
  5-O-Methylsphingosine (d18:1): 4.75 *
  Cysteine: 1.25
  Lignoceric acid (C24:0): 2.82 *
  Nervonic acid (C24:cis[15]1): 3 *
  Oleic acid (C18:cis[9]1): 0.97
  Stearic acid (C18:0): 1.4 *
  alpha-Tocopherol: 2.66 *
  erythro-Sphingoside (d18:1): 3.71 *
  threo-Sphingosine (d18:1): 3.72 *
m14, high dose, Table 10b
  Oleic acid (C18:cis[9]1): 0.97^
  Thyroxine (T4): 0.04 *
  trans-4-Hydroxyproline: 0.76 *
m28, high dose, Table 10a
  3-O-Methylsphingosine (d18:1): 4.59 *
  5-O-Methylsphingosine (d18:1): 4.37 *
  Cysteine: 0.92^
  Lignoceric acid (C24:0): 2.16 *
  Nervonic acid (C24:cis[15]1): 2.23 *
  Oleic acid (C18:cis[9]1): 0.87^
  alpha-Tocopherol: 2.18 *
  erythro-Sphingoside (d18:1): 3.44 *
  threo-Sphingosine (d18:1): 4.28 *
m28, high dose, Table 10b
  Oleic acid (C18:cis[9]1): 0.87 *
  Phosphatidylcholine (C16:0, C16:0): 0.92 *
  Thyroxine (T4): 0.02 *
  trans-4-Hydroxyproline: 0.92^
[1]
  1,5-Anhydrosorbitol, ratio versus control: 0.81 *
  3-O-Methylsphingosine (d18:1), ratio versus control: 3.59 *
  5-O-Methylsphingosine (d18:1), ratio versus control: 3.41 *
  18-Hydroxy-11-deoxycorticosterone, ratio versus control: 0.38 *
  Behenic acid (C22:0), ratio versus control: 2.19 *
  Ceramide (d18:1, C24:0), ratio versus control: 2.58 *
  Ceramide (d18:1, C24:1), ratio versus control: 1.88 *
  Coenzyme Q9, ratio versus control: 1.23
  Corticosterone, ratio versus control: 0.38 *
  Docosapentaenoic acid (C22:cis[7, 10, 13, 16, 19]5), ratio versus control: 1.16
  Glucose, ratio versus control: 1.02
  Glycerol, polar fraction, ratio versus control: 0.74 *
  Isoleucine, ratio versus control: 0.98
  Lignoceric acid (C24:0), ratio versus control: 2.12 *
  Linolenic acid (C18:cis[9, 12, 15]3), ratio versus control: 0.7 *
  Nervonic acid (C24:cis[15]1), ratio versus control: 2.59 *
  Phytosphingosine, ratio versus control: 2 *
  Sphingomyelin (d18:1, C16:0), ratio versus control: 2.24 *
  Threonic acid, ratio versus control: 0.72 *
  Tricosanoic acid (C23:0), ratio versus control: 1.93 *
  alpha-Tocopherol, ratio versus control: 2.26 *
  erythro-Sphingosine (d18:1), ratio versus control: 2.91 *
  threo-Sphingosine (d18:1), ratio versus control: 2.91 *
  trans-4-Hydroxyproline, ratio versus control: 0.85 *
[2]
  1,5-Anhydrosorbitol, ratio versus control: 0.98
  3-O-Methylsphingosine (d18:1), ratio versus control: 3.98 *
  5-O-Methylsphingosine (d18:1), ratio versus control: 4.75 *
  18-Hydroxy-11-deoxycorticosterone, ratio versus control: 0.82
  Behenic acid (C22:0), ratio versus control: 3.12 *
  Ceramide (d18:1, C24:0), ratio versus control: 2.83 *
  Ceramide (d18:1, C24:1), ratio versus control: 2.41 *
  Choline plasmalogen (C18, C20:4), ratio versus control: 1.45 *
  Coenzyme Q9, ratio versus control: 1.54 *
  Corticosterone, ratio versus control: 1.47 *
  Docosapentaenoic acid (C22:cis[7, 10, 13, 16, 19]5), ratio versus control: 1.17
  Glucose, ratio versus control: 1.11
  Glycerol, polar fraction, ratio versus control: 0.64 *
  Isoleucine, ratio versus control: 1.18 *
  Lignoceric acid (C24:0), ratio versus control: 2.82 *
  Linolenic acid (C18:cis[9, 12, 15]3), ratio versus control: 0.8 *
  Nervonic acid (C24:cis[15]1), ratio versus control: 3 *
  Phosphatidylcholine (C18:0, C22:6), ratio versus control: 0.97
  Phytosphingosine, ratio versus control: 3.12 *
  Sphingomyelin (d18:1, C16:0), ratio versus control: 2.27 *
  Sphingomyelin (d18:1, C24:0), ratio versus control: 1.64 *
  Threonic acid, ratio versus control: 0.69 *
  Tricosanoic acid (C23:0), ratio versus control: 2.69 *
  alpha-Tocopherol, ratio versus control: 3.65 *
  erythro-Sphingosine (d18:1), ratio versus control: 3.71 *
  threo-Sphingosine (d18:1), ratio versus control: 3.72 *
  trans-4-Hydroxyproline, ratio versus control: 0.76 *
[3]
  1,5-Anhydrosorbitol, ratio versus control: 1.06
  3-O-Methylsphingosine (d18:1), ratio versus control: 4.59 *
  5-O-Methylsphingosine (d18:1), ratio versus control: 4.37 *
  18-Hydroxy-11-deoxycorticosterone, ratio versus control: 0.24 *
  Behenic acid (C22:0), ratio versus control: 3.13 *
  Ceramide (d18:1, C24:0), ratio versus control: 2.72 *
  Ceramide (d18:1, C24:1), ratio versus control: 1.89 *
  Coenzyme Q9, ratio versus control: 2.14 *
  Corticosterone, ratio versus control: 0.63
  Glycerol, polar fraction, ratio versus control: 0.71 *
  Isoleucine, ratio versus control: 1.38 *
  Lignoceric acid (C24:0), ratio versus control: 2.16 *
  Linolenic acid (C18:cis[9, 12, 15]3), ratio versus control: 0.7 *
  Nervonic acid (C24:cis[15]1), ratio versus control: 2.23 *
  Phosphatidylcholine (C18:0, C22:6), ratio versus control: 1.22 *
  Phytosphingosine, ratio versus control: 3.11 *
  Sphingomyelin (d18:1, C16:0), ratio versus control: 1.92 *
  Sphingomyelin (d18:1, C24:0), ratio versus control: 1.41 *
  Threonic acid, ratio versus control: 0.69 *
  Tricosanoic acid (C23:0), ratio versus control: 2.5 *
  alpha-Tocopherol, ratio versus control: 2.04 *
  erythro-Sphingosine (d18:1), ratio versus control: 3.44 *
  threo-Sphingosine (d18:1), ratio versus control: 4.28 *
  trans-4-Hydroxyproline, ratio versus control: 0.92 *
rat, in vivo
  Docosapentaenoic acid (C22:cis[7, 10, 13, 16, 19]5), ratio versus control: 1.24 *
  Glucose, ratio versus control: 1.06 *
  Phosphatidylcholine (C18:0, C22:6), ratio versus control: 1.17 *
  Sphingomyelin (d18:1, C24:0), ratio versus control: 1.35 *
  Stearic acid (C18:0): 1.16 *

## CC/C(=C(\c1ccccc1)c1ccc(OCCN(C)C)cc1)c1ccccc1 [Tamoxifen]
m7, high dose, Table 14b
  Cholesterol: 0.45
  Choline plasmalogen No 02: 0.59
  Lignoceric acid (C24:0): 0.49
  Sphingomyelin (d18:1, C16:0): 0.41
  Sphingomyelin (d18:2, C16:0): 0.49
  erythro-Sphingosine (d18:1): 0.28
m14, high dose, Table 14b
  Cholesterol: 0.51
  Choline plasmalogen No 02: 0.6
  Lignoceric acid (C24:0): 0.63
  Sphingomyelin (d18:1, C16:0): 0.63
  Sphingomyelin (d18:2, C16:0): 0.52
  erythro-Sphingosine (d18:1): 0.41
m28, high dose, Table 14b
  Cholesterol: 0.51
  Choline plasmalogen No 02: 0.68
  Lignoceric acid (C24:0): 0.63
  Sphingomyelin (d18:1, C16:0): 0.6
  Sphingomyelin (d18:2, C16:0): 0.6
  erythro-Sphingosine (d18:1): 0.42

## CC1(C)CCC(=Cc2ccc(Cl)cc2)C1(O)Cn1cncn1 (stereo not drawn) [Triticonazole]
[4]
  Glycerol, polar fraction: 1.03
  Testosterone: 0.55 *
m14, male rats, high dose, Table 16
  Testosterone: 1.03
m28, male rats, high dose, Table 16
  Testosterone: 0.23 *

## C=CC1(C)OC(=O)N(c2cc(Cl)cc(Cl)c2)C1=O (stereo not drawn) [Vinclozolin]
m7, high dose, Table 11a
  Testosterone: 1.41^
m14, high dose, Table 11a
  Testosterone: 2.44 *
m28, high dose, Table 11a
  Testosterone: 1.09^
